Data from PubChem BioAssay AID1259407 (Chemical Carcinogenesis Research Information System (CCRIS), 2018).
Activity calls are given as the source filed them. No rule for the calls is given here.

System: CCRIS mutagenicity, Ames/micronucleus/aberration tests
Test: CCRIS mutagenicity studies
[1] = Test System: AMES SALMONELLA TYPHIMURIUM, Strain/Indicator: TA97, Metabolic Activation: NONE, Method: PREINCUBATION
[2] = Test System: AMES SALMONELLA TYPHIMURIUM, Strain/Indicator: TA98, Metabolic Activation: NONE, Method: PREINCUBATION
[3] = Test System: AMES SALMONELLA TYPHIMURIUM, Strain/Indicator: TA100, Metabolic Activation: NONE, Method: PREINCUBATION
[4] = Test System: AMES SALMONELLA TYPHIMURIUM, Strain/Indicator: TA1535, Metabolic Activation: NONE, Method: PREINCUBATION
[5] = Test System: AMES SALMONELLA TYPHIMURIUM, Strain/Indicator: TA102, Metabolic Activation: NONE, Method: PREINCUBATION
[6] = Test System: AMES SALMONELLA TYPHIMURIUM, Strain/Indicator: TA102, Metabolic Activation: RAT, LIVER, S-9, AROCLOR 1254, Method: PREINCUBATION

What does the source list for `N#CC(O)c1ccccc1` (stereo not drawn)?
mutagenic call (Test System: AMES SALMONELLA TYPHIMURIUM, Strain/Indicator: TA97, Metabolic Activation: HAMSTER, LIVER, S-9, AROCLOR 1254 (10%), Method: PREINCUBATION): inactive; negative; mutagenic call (Test System: AMES SALMONELLA TYPHIMURIUM, Strain/Indicator: TA97, Metabolic Activation: HAMSTER, LIVER, S-9, AROCLOR 1254 (30%), Method: PREINCUBATION): inactive; negative; mutagenic call [1]: inactive; negative; mutagenic call (Test System: AMES SALMONELLA TYPHIMURIUM, Strain/Indicator: TA97, Metabolic Activation: RAT, LIVER, S-9, AROCLOR 1254 (10%), Method: PREINCUBATION): inactive; negative; mutagenic call (Test System: AMES SALMONELLA TYPHIMURIUM, Strain/Indicator: TA97, Metabolic Activation: RAT, LIVER, S-9, AROCLOR 1254 (30%), Method: PREINCUBATION): inactive; negative; mutagenic call (Test System: AMES SALMONELLA TYPHIMURIUM, Strain/Indicator: TA98, Metabolic Activation: HAMSTER, LIVER, S-9, AROCLOR 1254 (10%), Method: PREINCUBATION): inactive; negative; mutagenic call (Test System: AMES SALMONELLA TYPHIMURIUM, Strain/Indicator: TA98, Metabolic Activation: HAMSTER, LIVER, S-9, AROCLOR 1254 (30%), Method: PREINCUBATION): inactive; negative; mutagenic call [2]: inactive; negative; mutagenic call (Test System: AMES SALMONELLA TYPHIMURIUM, Strain/Indicator: TA98, Metabolic Activation: RAT, LIVER, S-9, AROCLOR 1254 (10%), Method: PREINCUBATION): inactive; negative; mutagenic call (Test System: AMES SALMONELLA TYPHIMURIUM, Strain/Indicator: TA98, Metabolic Activation: RAT, LIVER, S-9, AROCLOR 1254 (30%), Method: PREINCUBATION): inactive; negative; mutagenic call (Test System: AMES SALMONELLA TYPHIMURIUM, Strain/Indicator: TA100, Metabolic Activation: HAMSTER, LIVER, S-9, AROCLOR 1254 (10%), Method: PREINCUBATION): inactive; negative; mutagenic call (Test System: AMES SALMONELLA TYPHIMURIUM, Strain/Indicator: TA100, Metabolic Activation: HAMSTER, LIVER, S-9, AROCLOR 1254 (30%), Method: PREINCUBATION): inactive; negative; mutagenic call [3]: inactive; negative; mutagenic call (Test System: AMES SALMONELLA TYPHIMURIUM, Strain/Indicator: TA100, Metabolic Activation: RAT, LIVER, S-9, AROCLOR 1254 (10%), Method: PREINCUBATION): inactive; negative; mutagenic call (Test System: AMES SALMONELLA TYPHIMURIUM, Strain/Indicator: TA100, Metabolic Activation: RAT, LIVER, S-9, AROCLOR 1254 (30%), Method: PREINCUBATION): inactive; negative; mutagenic call (Test System: AMES SALMONELLA TYPHIMURIUM, Strain/Indicator: TA1535, Metabolic Activation: HAMSTER, LIVER, S-9, AROCLOR 1254 (10%), Method: PREINCUBATION): inactive; negative; mutagenic call (Test System: AMES SALMONELLA TYPHIMURIUM, Strain/Indicator: TA1535, Metabolic Activation: HAMSTER, LIVER, S-9, AROCLOR 1254 (30%), Method: PREINCUBATION): inactive; negative; mutagenic call [4]: inactive; negative; mutagenic call (Test System: AMES SALMONELLA TYPHIMURIUM, Strain/Indicator: TA1535, Metabolic Activation: RAT, LIVER, S-9, AROCLOR 1254 (10%), Method: PREINCUBATION): inactive; negative; mutagenic call (Test System: AMES SALMONELLA TYPHIMURIUM, Strain/Indicator: TA1535, Metabolic Activation: RAT, LIVER, S-9, AROCLOR 1254 (30%), Method: PREINCUBATION): inactive; negative

With `Cl/C=C(\Cl)C(Cl)Cl` as the molecule, how does the mutagenic call (Test System: AMES SALMONELLA TYPHIMURIUM, Strain/Indicator: TA98, Metabolic Activation: NONE, Method: STANDARD PLATE) read?
The mutagenic call was “active; positive”.

And the mutagenic call (Test System: AMES SALMONELLA TYPHIMURIUM, Strain/Indicator: TA100, Metabolic Activation: NONE, Method: STANDARD PLATE)?
Its mutagenic call is “active; positive”.

What about the mutagenic call (Test System: AMES SALMONELLA TYPHIMURIUM, Strain/Indicator: TA100, Metabolic Activation: RAT, LIVER, S-9, AROCLOR 1254, Method: STANDARD PLATE) of the same molecule?
The mutagenic call was “active; positive”.

What about the mutagenic call (Test System: AMES SALMONELLA TYPHIMURIUM, Strain/Indicator: TA1535, Metabolic Activation: NONE, Method: STANDARD PLATE) of the same molecule?
Its mutagenic call is “active; positive”.

Which results are given for `CC(=O)C(C)O` (stereo not drawn)?
mutagenic call [2]: inactive; negative; mutagenic call (Test System: AMES SALMONELLA TYPHIMURIUM, Strain/Indicator: TA98, Metabolic Activation: RAT, LIVER, S-9, AROCLOR 1254, Method: PREINCUBATION): inactive; negative; mutagenic call [3]: inactive; negative; mutagenic call (Test System: AMES SALMONELLA TYPHIMURIUM, Strain/Indicator: TA100, Metabolic Activation: RAT, LIVER, S-9, AROCLOR 1254, Method: PREINCUBATION): inactive; negative; mutagenic call [5]: inactive; negative; mutagenic call [6]: inactive; negative; mutagenic call [4]: inactive; negative; mutagenic call (Test System: AMES SALMONELLA TYPHIMURIUM, Strain/Indicator: TA1537, Metabolic Activation: NONE, Method: PREINCUBATION): inactive; negative; mutagenic call (Test System: AMES SALMONELLA TYPHIMURIUM, Strain/Indicator: TA1538, Metabolic Activation: NONE, Method: PREINCUBATION): inactive; negative; mutagenic call (Test System: E. COLI, Strain/Indicator: WP2 UVRA, Metabolic Activation: NONE, Method: PREINCUBATION): inactive; negative

Which results are given for `CCOC(=O)CC(C)C`?
mutagenic call [1]: inactive; negative; mutagenic call (Test System: AMES SALMONELLA TYPHIMURIUM, Strain/Indicator: TA97, Metabolic Activation: RAT, LIVER, S-9, AROCLOR 1254, Method: PREINCUBATION): inactive; negative; mutagenic call [5]: inactive; negative; mutagenic call [6]: inactive; negative
